Values quoted from earlier work, collected in patent US20040148013A1, “Stent-based delivery statins to prevent restenosis” (priority 2003, published 2004).

Key:
neointimal accumulation = conditions: in vivo, rat carotid artery injury model

For `CC(=O)O[C@H]1C(=O)[C@@]2(C)[C@H]([C@H](OC(=O)c3ccccc3)[C@]3(O)C[C@H](OC(=O)[C@H](O)[C@@H](NC(=O)c4ccccc4)c4ccccc4)C(C)=C1C3(C)C)[C@]1(OC(C)=O)CO[C@@H]1C[C@@H]2O` [Taxol®, Paclitaxel], the induction of apoptosis (SMC; biologically relevant concentrations) is listed as “does not appear to induce apoptosis”, the SMC proliferation (SMC; in vitro) is listed as “inhibited” and the “platelet-derived growth factor-stimulated SMC migration” value (SMC; in vitro) is listed as “inhibited”. The neointimal accumulation (neointimal accumulation) was “inhibited neointimal accumulation”.
